The source of these data is ChEMBL document CHEMBL5291721, “A preclinical secondary pharmacology resource illuminates target-adverse drug reaction associations of marketed drugs” (Nat Commun, 2023).

What is called AC50 is the midpoint of the concentration-response curve, whichever way the signal moves.

In assay [1] the target is T1, Progesterone receptor (Homo sapiens, UniProt P06401).
T1 sequence (P06401 whole entry): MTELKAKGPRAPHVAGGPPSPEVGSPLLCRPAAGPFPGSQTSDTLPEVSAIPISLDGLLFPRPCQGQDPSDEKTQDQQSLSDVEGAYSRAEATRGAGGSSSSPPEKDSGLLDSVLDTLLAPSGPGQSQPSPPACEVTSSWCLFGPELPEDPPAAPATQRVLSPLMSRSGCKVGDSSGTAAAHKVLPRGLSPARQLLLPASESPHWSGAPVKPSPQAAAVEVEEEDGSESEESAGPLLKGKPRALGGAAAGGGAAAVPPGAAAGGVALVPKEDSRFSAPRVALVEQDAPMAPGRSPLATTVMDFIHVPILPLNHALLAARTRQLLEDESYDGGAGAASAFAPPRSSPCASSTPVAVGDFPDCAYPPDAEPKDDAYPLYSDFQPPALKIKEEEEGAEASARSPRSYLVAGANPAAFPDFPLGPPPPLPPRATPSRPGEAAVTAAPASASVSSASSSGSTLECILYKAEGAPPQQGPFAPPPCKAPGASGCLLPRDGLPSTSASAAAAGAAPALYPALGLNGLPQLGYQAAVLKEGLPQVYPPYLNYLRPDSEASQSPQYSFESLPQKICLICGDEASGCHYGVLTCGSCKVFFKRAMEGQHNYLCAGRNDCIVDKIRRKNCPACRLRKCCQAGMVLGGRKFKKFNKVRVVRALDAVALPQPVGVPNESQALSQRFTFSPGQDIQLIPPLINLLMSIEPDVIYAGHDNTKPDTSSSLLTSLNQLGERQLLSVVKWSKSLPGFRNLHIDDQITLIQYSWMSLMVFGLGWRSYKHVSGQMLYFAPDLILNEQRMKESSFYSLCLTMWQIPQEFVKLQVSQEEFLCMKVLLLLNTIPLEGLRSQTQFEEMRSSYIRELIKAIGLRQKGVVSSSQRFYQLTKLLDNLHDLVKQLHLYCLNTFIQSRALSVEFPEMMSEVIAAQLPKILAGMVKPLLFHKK
The format is functional.

For assay [2], the target named is T2, Type-1 angiotensin II receptor (Homo sapiens, UniProt P30556).
T2 sequence (P30556 whole entry): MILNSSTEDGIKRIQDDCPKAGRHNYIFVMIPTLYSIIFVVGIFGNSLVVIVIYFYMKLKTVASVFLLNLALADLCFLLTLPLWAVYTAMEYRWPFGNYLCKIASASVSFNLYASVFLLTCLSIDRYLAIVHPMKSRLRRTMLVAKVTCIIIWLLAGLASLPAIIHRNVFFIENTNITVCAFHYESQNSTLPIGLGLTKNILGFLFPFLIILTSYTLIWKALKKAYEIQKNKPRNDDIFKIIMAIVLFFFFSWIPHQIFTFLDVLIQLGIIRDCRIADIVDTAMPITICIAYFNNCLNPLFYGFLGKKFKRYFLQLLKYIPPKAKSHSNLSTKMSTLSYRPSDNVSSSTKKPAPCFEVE

Assay [3] addresses Histamine H2 receptor (Homo sapiens, UniProt P25021). The class given is functional, cell-based.
For assay [4], the target named is T1, Progesterone receptor. The format is functional. This is another data set of the same source.
Assay [5] concerns the target Gamma-aminobutyric acid receptor subunit alpha-1 (Rattus norvegicus, UniProt P62813). The format is functional.
Assay [6] has as its target T3, Gastrin/cholecystokinin type B receptor (Homo sapiens, UniProt P32239).
T3 sequence (P32239 whole entry): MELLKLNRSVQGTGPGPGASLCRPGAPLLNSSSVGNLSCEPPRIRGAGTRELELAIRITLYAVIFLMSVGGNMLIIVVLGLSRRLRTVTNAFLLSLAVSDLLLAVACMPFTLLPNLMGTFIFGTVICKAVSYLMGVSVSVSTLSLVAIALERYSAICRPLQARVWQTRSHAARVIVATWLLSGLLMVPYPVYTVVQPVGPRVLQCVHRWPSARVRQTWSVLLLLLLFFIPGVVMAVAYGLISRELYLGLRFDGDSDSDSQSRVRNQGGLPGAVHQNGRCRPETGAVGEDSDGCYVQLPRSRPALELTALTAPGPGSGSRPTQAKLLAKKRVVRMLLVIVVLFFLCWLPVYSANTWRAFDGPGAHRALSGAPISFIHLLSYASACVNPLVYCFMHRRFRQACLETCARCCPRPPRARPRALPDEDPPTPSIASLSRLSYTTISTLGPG

Assay [7] deals with T4, Alpha-2A adrenergic receptor (Homo sapiens, UniProt P08913).
T4 sequence (P08913 whole entry): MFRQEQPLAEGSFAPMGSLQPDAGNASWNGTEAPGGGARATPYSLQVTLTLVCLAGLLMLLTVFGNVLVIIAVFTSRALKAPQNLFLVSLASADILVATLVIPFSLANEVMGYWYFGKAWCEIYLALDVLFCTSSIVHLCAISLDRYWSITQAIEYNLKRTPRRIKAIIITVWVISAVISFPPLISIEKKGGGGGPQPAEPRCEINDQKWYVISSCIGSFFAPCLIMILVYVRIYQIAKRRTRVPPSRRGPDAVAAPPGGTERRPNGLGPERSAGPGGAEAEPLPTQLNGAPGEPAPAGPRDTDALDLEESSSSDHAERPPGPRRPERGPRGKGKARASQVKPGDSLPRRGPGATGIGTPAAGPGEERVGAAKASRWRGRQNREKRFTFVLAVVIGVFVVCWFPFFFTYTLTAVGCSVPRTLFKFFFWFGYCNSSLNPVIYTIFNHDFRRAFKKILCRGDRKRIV
The format is functional, cell-based.

Assay [8] concerns the target Motilin receptor (Homo sapiens, UniProt O43193).
Assay [9] deals with Adenosine receptor A2a (Homo sapiens, UniProt P29274).
Chain of Adenosine receptor A2a (P29274 whole entry): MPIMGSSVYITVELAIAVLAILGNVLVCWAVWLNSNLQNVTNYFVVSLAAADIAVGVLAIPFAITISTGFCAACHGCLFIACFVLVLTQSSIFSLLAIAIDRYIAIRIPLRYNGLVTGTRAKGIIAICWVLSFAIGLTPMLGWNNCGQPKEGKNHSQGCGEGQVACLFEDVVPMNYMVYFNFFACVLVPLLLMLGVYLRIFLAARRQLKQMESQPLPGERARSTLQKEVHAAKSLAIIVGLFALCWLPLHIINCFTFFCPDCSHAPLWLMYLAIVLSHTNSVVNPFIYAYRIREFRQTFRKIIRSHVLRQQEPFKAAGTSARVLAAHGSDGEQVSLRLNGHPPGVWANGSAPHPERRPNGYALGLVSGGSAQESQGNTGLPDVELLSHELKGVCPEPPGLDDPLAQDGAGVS
Assay [10] deals with Vasopressin V1a receptor (Homo sapiens, UniProt P37288).
Chain of Vasopressin V1a receptor (P37288 whole entry): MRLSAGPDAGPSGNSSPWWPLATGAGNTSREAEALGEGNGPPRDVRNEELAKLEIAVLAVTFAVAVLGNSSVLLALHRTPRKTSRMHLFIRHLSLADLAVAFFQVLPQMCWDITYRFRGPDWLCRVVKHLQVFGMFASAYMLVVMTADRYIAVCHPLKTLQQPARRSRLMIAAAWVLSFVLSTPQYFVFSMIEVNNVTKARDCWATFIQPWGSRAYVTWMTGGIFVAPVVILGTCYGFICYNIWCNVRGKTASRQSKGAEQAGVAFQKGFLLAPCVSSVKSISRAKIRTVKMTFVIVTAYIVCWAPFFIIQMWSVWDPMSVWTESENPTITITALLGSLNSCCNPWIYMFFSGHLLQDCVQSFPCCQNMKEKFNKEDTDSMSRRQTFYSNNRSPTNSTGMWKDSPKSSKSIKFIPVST
Also: assay procedure not described here.

Chain of Gamma-aminobutyric acid receptor subunit alpha-1 (P62813 whole entry): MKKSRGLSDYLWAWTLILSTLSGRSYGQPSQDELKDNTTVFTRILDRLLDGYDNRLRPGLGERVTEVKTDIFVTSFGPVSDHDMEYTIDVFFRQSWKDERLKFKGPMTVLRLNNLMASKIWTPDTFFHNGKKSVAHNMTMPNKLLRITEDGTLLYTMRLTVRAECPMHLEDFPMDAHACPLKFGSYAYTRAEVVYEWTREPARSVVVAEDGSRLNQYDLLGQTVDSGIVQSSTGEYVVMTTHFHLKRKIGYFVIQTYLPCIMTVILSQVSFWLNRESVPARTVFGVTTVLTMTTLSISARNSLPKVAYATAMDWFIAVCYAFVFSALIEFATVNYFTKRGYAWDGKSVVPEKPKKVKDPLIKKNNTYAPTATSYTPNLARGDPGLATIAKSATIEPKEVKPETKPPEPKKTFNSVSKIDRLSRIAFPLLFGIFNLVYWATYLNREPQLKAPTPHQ
Chain of Histamine H2 receptor (P25021 whole entry): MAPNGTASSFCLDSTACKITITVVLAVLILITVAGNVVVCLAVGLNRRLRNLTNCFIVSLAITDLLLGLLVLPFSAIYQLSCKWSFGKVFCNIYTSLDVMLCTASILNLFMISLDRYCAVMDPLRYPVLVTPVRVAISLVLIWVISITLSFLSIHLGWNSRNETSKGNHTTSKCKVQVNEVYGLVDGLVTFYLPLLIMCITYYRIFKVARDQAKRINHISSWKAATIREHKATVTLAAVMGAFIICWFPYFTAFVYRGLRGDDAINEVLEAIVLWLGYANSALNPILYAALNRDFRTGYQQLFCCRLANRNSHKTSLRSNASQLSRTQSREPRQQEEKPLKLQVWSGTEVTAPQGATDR
Chain of Motilin receptor (O43193 whole entry): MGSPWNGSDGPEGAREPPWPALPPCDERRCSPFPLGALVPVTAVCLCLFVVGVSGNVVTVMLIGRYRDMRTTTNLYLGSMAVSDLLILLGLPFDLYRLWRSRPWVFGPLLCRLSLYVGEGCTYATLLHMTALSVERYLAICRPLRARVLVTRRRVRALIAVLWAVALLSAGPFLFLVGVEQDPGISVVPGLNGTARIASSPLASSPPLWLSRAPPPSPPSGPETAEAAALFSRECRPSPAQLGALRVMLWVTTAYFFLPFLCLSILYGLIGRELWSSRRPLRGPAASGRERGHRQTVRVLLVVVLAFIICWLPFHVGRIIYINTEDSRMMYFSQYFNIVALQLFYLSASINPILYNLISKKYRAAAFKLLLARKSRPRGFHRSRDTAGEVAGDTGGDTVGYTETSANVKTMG

Take `CC(CN(C)C)C(C)(O)Cc1ccc(Cl)cc1` (configuration not stated) [CLOBUTINOL]: the AC50 in assay [1] is above 30 µM; in assay [2], above 30 µM; in [3], above 10 µM; in assay [4], above 30 µM; in [5] it was above 10 µM; in assay [6] it was above 30 µM. Besides, the AC50 in assay [7] was above 10 µM; in assay [8], above 10 µM; in assay [9] it was above 30 µM.

With `C[C@@H]1C[C@H]2[C@@H]3CCC4=CC(=O)C=C[C@]4(C)[C@@]3(F)[C@@H](O)C[C@]2(C)[C@@]1(O)C(=O)CO` [DEXAMETHASONE], the AC50 in [1] was 0.2 µM; in assay [2] it was above 30 µM; in [3], above 30 µM; in assay [5], above 10 µM; in assay [6], above 30 µM; in assay [7], above 10 µM. Besides, the AC50 in assay [8], in assay [9] and in assay [10] was above 30 µM throughout.

For `CCN1CC(CCN2CCOCC2)C(c2ccccc2)(c2ccccc2)C1=O` (configuration not stated) [DOXAPRAM], the AC50 in assay [1], in [2], in assay [3], in assay [4], in assay [5] and in assay [6] was above 30 µM in each case. For the same compound, the AC50 in assay [7], in assay [8] and in assay [9] was above 30 µM throughout.

Consider `CCOC(=O)c1ncn2c1CN(C)C(=O)c1cc(F)ccc1-2` [FLUMAZENIL], for which the AC50 in assay [1], in [2], in assay [3], in assay [4], in assay [6] and in [7] was above 30 µM in each case. Further, the concentration at half-maximal activity (AC50) in assay [8] and in assay [9] was above 30 µM throughout.

In the case of `CN1CCN=C(c2ccccc2)c2cc(Cl)ccc21` [MEDAZEPAM], the AC50 in [1] is above 30 µM; in assay [2] it was above 30 µM; in [3], above 30 µM; in [5], 2.1 µM; in assay [6], above 30 µM; in [7], above 30 µM. The half-maximal activity concentration (AC50) in assay [8], in assay [9] and in assay [10] was above 30 µM each time.

On to `Cc1ccnc2c1NC(=O)c1cccnc1N2C1CC1` [NEVIRAPINE], for which the AC50 was above 30 µM in [2]; above 10 µM in assay [3]; above 10 µM in assay [5]; above 30 µM in assay [6]; above 10 µM in assay [7]; above 10 µM in [8]. Also, the results for the AC50 in [9] and in [10] were 15.2 µM and above 10 µM, respectively.

As for `C[C@]12C/C(=C/O)C(=O)C[C@@H]1CC[C@@H]1[C@@H]2CC[C@@]2(C)[C@H]1CC[C@]2(C)O` [OXYMETHOLONE], the AC50 was 23 µM in assay [1]; 15 µM in assay [2]; above 30 µM in assay [3]; above 30 µM in assay [5]; above 30 µM in assay [6]; above 30 µM in assay [7]. Also, the half-maximal activity concentration (AC50) in assay [8] and in assay [9] was above 30 µM throughout.

With `CCC(=O)O[C@](Cc1ccccc1)(c1ccccc1)[C@H](C)CN(C)C` [PROPOXYPHENE], the AC50 is above 30 µM in [2]; above 10 µM in assay [3]; above 10 µM in [5]; above 30 µM in assay [6]; above 10 µM in [7]; above 10 µM in assay [8]. Besides, the AC50 in assay [9] is above 30 µM; in assay [10] it was above 10 µM.

Turning to `COc1cc(C(=O)NC2CCCNC2)cc(OC)c1OC` (configuration not stated) [TROXIPIDE], the AC50 in assay [1], in assay [2], in [3], in [4], in assay [5] and in assay [6] was above 30 µM throughout. Besides, the AC50 in [7], in assay [8] and in assay [9] was above 30 µM throughout.
